The source made the active and inactive calls.
How the values were obtained:
Large T antigen = Large T antigen (Simian virus 40, UniProt P03070); assay type: functional, Betapolyomavirus macacae;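 note: Confirmatory-stage PubChem screen for compounds that inhibit SV40 T antigen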
[1] = biological target: Bifunctional protein GlmU (Mycobacterium tuberculosis, UniProt P9WMN3); assay: Inhibitors of Mycobacterial Glucosamine-1-phosphate acetyl transferase (GlmU). Secondary screen.; design: species or system Mycobacterium tuberculosis H37Rv
[2] = biological target: Intestinal-type alkaline phosphatase (Homo sapiens, UniProt P09923); assay: activation of human intestinal alkaline phosphatase – biochemical, dose response (AID 488873); assay type: functional
Troponin, cardiac muscle = Troponin, cardiac muscle (Homo sapiens, UniProt P19429+P45379+P63316); assay: Fluorescence-based biochemical high throughput dose response assay for activators of the calcium sensitivity of cardiac Regulated Thin Filaments (RTF). [Related pubchem assays (depositor defined):AID493008, AID493018, AID504382, AID504383]; assay type: protein-complex assay
[3] = biological target: Intestinal-type alkaline phosphatase (Mus musculus, UniProt P24822); assay: mouse intestinal alkaline phosphatase activators, dose response, biochemical, luminescence, uHTS hits (AID 488783); assay type: functional
[4] = biological target: T1, Alkaline phosphatase, tissue-nonspecific isozyme (Homo sapiens, UniProt P05186); assay: TNAP enzyme activators, dose response, selectivity assay for mouse IAP activator project, biochemical, TNAP isozyme, mouse IAP uHTS hits (AID 488880); assay type: functional
T1 sequence (P05186 whole entry): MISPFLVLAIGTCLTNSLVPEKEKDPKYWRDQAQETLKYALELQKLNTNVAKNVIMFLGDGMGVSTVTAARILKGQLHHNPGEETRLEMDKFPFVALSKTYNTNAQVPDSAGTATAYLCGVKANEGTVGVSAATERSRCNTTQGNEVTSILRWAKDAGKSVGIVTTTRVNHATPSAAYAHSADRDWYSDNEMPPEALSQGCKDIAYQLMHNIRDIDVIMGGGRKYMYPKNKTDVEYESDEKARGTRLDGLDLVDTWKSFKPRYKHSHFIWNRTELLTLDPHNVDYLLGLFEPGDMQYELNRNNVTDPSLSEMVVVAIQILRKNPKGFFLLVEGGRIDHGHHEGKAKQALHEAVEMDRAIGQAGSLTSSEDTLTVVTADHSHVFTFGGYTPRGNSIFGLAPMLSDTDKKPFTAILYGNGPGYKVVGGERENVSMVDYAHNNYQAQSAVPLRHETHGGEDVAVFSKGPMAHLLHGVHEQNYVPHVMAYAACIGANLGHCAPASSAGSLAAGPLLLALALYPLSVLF

Keap1/Nrf2 = Keap1/Nrf2 (Homo sapiens, UniProt Q14145); assay: Keap1-Nrf2 protein-protein interaction inhibitors, dose response, biochemical, fluorescence polarization, cherry-picked samples (AID 588683)
[5] = biological target: T2, Dual specificity protein phosphatase 3 (Homo sapiens, UniProt P51452); assay: VHR1 phosphatase inhibitors, primary screen, biochemical, absorbance, uHTS (AID 1654)
[6] = biological target: T2, Dual specificity protein phosphatase 3; assay: VHR1 phosphatase inhibitors, biochemical (AID 1878)
[7] = biological target: T3, Dual specificity protein phosphatase 6 (Rattus norvegicus, UniProt Q64346); assay: MKP-3 phosphatase inhibitors, primary screen, biochemical, rat enzyme, in vitro (AID 425)
T3 sequence (Q64346 whole entry): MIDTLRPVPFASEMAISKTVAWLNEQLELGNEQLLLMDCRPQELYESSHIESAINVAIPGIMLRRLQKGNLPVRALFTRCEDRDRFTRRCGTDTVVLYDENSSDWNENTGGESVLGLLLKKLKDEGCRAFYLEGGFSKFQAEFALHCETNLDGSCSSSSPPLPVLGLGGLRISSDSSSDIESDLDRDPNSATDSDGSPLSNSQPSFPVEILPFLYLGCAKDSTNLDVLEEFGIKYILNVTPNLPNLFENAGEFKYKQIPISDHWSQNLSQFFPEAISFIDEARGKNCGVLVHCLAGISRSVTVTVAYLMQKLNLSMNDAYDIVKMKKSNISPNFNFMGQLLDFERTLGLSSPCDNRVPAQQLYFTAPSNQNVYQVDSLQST

[8] = biological target: Tyrosine-protein phosphatase non-receptor type 12 (Homo sapiens, UniProt Q05209); assay: SAR Selectivity Analysis of small molecule inhibitors of PEST using pCAP in a fluorescence assay. [Related pubchem assays (depositor defined):AID1779, AID1784, AID2135]; assay type: functional
[9] = biological target: T2, Dual specificity protein phosphatase 3; assay: SAR VHR1 absorbance Assay for In Vitro dose response studies. [Related pubchem assays (depositor defined):AID1654, AID1661, AID1878, AID1992, AID2004]
[10] = biological target: T2, Dual specificity protein phosphatase 3; assay: SAR VHR1 Fluorescent Assay for In Vitro dose response studies. [Related pubchem assays (depositor defined):AID1654, AID1661, AID1878, AID1992, AID2004, AID2070, AID2085]; assay type: functional
[11] = biological target: T4, Tyrosine-protein phosphatase non-receptor type 22 (Homo sapiens, UniProt Q9Y2R2); assay: SAR LYP1 Fluorescent Assay using OMFP substrate for In Vitro dose response studies - Set 3. [Related pubchem assays (depositor defined):AID1779, AID1784, AID2140, AID2686]; assay type: functional
T4 sequence (Q9Y2R2 whole entry): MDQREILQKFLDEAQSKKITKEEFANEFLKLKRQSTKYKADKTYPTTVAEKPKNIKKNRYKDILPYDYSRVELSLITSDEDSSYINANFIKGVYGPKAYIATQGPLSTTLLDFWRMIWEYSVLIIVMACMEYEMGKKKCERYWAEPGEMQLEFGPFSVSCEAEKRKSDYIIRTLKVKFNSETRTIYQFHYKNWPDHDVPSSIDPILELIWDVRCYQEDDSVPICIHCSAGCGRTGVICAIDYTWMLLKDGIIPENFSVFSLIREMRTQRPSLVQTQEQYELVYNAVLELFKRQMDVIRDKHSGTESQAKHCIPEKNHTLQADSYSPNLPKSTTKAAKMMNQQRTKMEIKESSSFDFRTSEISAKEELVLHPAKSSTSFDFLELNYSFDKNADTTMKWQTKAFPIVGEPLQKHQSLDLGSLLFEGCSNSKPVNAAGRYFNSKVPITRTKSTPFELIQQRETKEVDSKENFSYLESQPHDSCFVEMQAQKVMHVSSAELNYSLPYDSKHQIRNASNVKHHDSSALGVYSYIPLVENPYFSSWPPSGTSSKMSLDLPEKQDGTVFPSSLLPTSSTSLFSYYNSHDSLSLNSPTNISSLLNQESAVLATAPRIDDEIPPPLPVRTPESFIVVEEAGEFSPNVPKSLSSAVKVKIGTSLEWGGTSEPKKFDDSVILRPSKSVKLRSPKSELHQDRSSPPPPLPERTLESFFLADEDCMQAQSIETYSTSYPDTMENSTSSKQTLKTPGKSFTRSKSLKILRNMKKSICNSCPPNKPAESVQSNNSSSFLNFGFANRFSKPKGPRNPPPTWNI

[12] = biological target: T5, Tyrosine-protein phosphatase non-receptor type 7 (Homo sapiens, UniProt P35236); assay: redox-dependent HePTP inhibition, mechanism study, biochemical, fluorescence (AID 2068); assay type: functional
T5 sequence (P35236 whole entry): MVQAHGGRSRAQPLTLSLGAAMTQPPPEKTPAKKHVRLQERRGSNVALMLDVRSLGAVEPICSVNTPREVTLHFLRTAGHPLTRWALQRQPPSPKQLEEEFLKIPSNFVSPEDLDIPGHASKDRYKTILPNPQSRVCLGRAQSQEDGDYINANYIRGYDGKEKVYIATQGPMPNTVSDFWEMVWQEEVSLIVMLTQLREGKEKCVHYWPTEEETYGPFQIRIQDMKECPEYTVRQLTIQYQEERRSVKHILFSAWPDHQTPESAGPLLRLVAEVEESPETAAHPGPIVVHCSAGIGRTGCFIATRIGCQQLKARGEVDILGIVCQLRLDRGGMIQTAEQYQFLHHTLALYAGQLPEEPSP

[13] = biological target: T4, Tyrosine-protein phosphatase non-receptor type 22; assay: LYP (PTPN22) phosphatase inhibitor potency, SAR follow-up, biochemical, pCAP fluorogenic substrate, fluorescence, set 3 (AID 449727); assay type: functional
[14] = biological target: T6, Apoptotic protease-activating factor 1 (Homo sapiens, UniProt O14727); assay: activation of Apaf-1 mediated apoptosis – fluorescent, uHTS hits, dose response (AID 588554); assay type: functional
T6 sequence (O14727 whole entry): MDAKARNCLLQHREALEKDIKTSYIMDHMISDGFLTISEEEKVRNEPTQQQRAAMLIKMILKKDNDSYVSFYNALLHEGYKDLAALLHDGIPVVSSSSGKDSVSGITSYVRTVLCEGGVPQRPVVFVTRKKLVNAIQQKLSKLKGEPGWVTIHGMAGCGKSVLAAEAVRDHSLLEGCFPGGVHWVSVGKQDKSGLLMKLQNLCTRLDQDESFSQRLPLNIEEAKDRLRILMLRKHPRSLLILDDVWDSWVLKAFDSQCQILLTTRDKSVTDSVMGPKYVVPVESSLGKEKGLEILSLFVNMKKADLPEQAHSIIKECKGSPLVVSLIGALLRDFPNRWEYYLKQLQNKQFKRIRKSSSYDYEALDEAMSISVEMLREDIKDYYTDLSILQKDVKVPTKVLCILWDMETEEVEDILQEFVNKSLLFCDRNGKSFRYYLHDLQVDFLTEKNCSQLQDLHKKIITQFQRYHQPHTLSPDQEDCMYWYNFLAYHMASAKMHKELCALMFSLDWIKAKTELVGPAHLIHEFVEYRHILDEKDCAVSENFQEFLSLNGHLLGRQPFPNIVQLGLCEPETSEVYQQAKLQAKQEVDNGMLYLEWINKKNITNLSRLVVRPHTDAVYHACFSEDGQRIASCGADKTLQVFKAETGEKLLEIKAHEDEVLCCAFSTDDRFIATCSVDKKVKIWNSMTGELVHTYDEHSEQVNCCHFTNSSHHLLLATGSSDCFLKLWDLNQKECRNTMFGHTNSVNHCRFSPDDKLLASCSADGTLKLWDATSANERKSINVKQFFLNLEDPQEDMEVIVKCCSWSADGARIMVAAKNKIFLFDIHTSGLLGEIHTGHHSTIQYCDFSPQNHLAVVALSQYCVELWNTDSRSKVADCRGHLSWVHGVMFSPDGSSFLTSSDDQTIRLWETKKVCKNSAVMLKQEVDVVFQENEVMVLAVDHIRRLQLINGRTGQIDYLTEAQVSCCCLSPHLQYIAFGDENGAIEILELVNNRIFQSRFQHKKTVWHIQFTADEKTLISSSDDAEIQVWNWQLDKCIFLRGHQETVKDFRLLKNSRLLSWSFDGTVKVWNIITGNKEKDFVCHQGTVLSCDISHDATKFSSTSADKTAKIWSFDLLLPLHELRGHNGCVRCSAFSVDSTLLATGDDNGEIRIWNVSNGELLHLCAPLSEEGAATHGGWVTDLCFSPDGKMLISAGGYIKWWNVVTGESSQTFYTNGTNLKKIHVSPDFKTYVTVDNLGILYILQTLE

[15] = biological target: T3, Dual specificity protein phosphatase 6; assay type: functional
Genome polyprotein = Genome polyprotein (dengue virus type 2, UniProt P29990); assay: Dengue-2 NS5 methyltransferase inhibitors, primary screen, biochemical, confirmation dose response (AID 588689); assay type: functional
[16] = biological target: T2, Dual specificity protein phosphatase 3; assay: SAR VHR1 Fluorescent Assay for In Vitro dose response studies Set 3. [Related pubchem assays (depositor defined):AID1654, AID1661, AID1878]; assay type: functional
Jurkat = assay: antigen receptor-induced NF-kB inhibitors, dose response, Jurkat, luciferase reporter, luminescence, B- and T-cell (AID 489004); assay type: functional, cell-based; conditions: Homo sapiens;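 note: NF-kB luciferase reporter Jurkat cells stimulated with PMA plus ionomycin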
[17] = biological target: Cyclin-dependent kinase 5/CDK5 activator 1 (Homo sapiens, UniProt Q00535); assay: CDK5/p35 kinase inhibitors, dose response, biochemical, cherry-picked samples, set 2 (AID 504545)
[18] = cytotoxicity in HEK-293T NF-kB-Luc cells, dose response, cytotoxicity control for B/T-cell NF-kB inhibitor project, cell-based, uHTS hits (AID 489019); assay type: functional;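 note: IC50 reflects cytotoxicity as loss of cell viability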

Cc1ccc(/C=C2/SC(=O)NC2=S)o1
inactive: EC50 (Troponin, cardiac muscle) 17.9 µM | AC50 (Keap1/Nrf2) > 52 µM
active: IC50 (Large T antigen) > 100 µM | IC50 [1] 170 µM | EC50 [2] 41.4 µM | EC50 [3] 21.8 µM | EC50 [4] 45.5 µM

CCc1ccc(NC2=NC(=O)/C(=C/c3cc(Br)c(OCC(=O)O)c(OC)c3)S2)cc1
active: IC50 [5] 10.5 µM | IC50 [6] 3.93 µM | IC50 [7] 84.5 µM | IC50 [8] 2.78 µM | IC50 [9] 3.62 µM | IC50 [10] 0.878 µM | IC50 [11] 10.3 µM | IC50 [12] 0.28 µM | IC50 [13] 6.74 µM | EC50 [14] 15.8 µM | IC50 [15] 44.9 µM | IC50 (Genome polyprotein) 39.5 µM

Cc1cc(Cl)cc2sc(N(Cc3cccnc3)C(=O)c3cccc(N4C(=O)CCC4=O)c3)nc12
active: IC50 [16] 58.2 µM

C=CC(=O)Nc1ccc(Nc2nc(N[C@H]3CC[C@H](N(C)C)CC3)nc3c2ncn3C(C)C)cc1
inactive: IC50 [18] > 80 µM
active: IC50 (Jurkat) 0.17 µM | AC50 [17] 1.48 µM
